Results from patent US11413250B2, “Shape changing drug delivery devices and methods” (Incept, LLC, priority 2015, dated 2022).

Conditions: in vivo test of Example 17
Protocol: The tolerability, pharmacokinetics, and pharmacodynamics of the formulations from examples 1 and 2 were evaluated in Dutch belted rabbits through 6 months. 112 eyes of naïve Dutch belted rabbits ([…]) were bilaterally dosed with either a necked fiber or a coiled fiber and were sacrificed at 1, 3 and 6 months to test for biocompatibility or pharmacokinetics.

Structure (SMILES): CNC(=O)c1ccccc1Sc1ccc2c(/C=C/c3ccccn3)n[nH]c2c1 [Axitinib]
- Toxicity of the delivered amounts: not toxic
